Data: patent US5212159A, “Anticataract composition” (Senju Pharmaceutical Co., Ltd., priority 1991, dated 1993)

Tested on: Streptozotocin-induced Diabetic Cataract
Assay: Inhibitory effect on streptozotocin-induced diabetic cataract (slit-lamp cataract score, Sasaki scale)
Format: in vivo, male SD rats
Method: Streptozotocin (hereafter abbreviated as STZ), 70 mg/kg, was administered intravenously to 28 male SD rats aged 4 weeks to induce diabetes. Thereafter, the animals were divided into three groups (two groups consisting of 10 animals each and a group consisting of 8 animals). […] The lens was examined with a slit lamp under mydriasis with Mydrin-P before the beginning of drug administration and every seven days after initiation of administration. The degree of cataract was scored according to the rating scale of Sasaki et al. (Ophthalmic Res. 15: 185-190, 1983) and the anticataract activity of each drug was tested by time series analysis of variance. Body weights were taken on each observation day. […] Rating scale of Sasaki et al. 0: No abnormality. […] Vacuoles are present in the equator of the lens. […] Vacuoles spread toward the anterior pole beneath the cortex of the anterior lens capsule. […] Vacuole begin to merge. […] The deep layer of the cortex of the anterior lens capsule is cloudy. […] The central part of the lens is milk white in color. […] Virtually the entire lens is milk white in color (mature cataract).

[1] = compared with the control group, 100 mg/kg/day i.p. for 56 days
[2] = day 7 after the beginning of treatment, 100 mg/kg/day i.p.
[3] = day 14 after the beginning of treatment, 100 mg/kg/day i.p.
[4] = day 21 after the beginning of treatment, 100 mg/kg/day i.p.
[5] = day 28 after the beginning of treatment, 100 mg/kg/day i.p.
[6] = day 35 after the beginning of treatment, 100 mg/kg/day i.p.
[7] = day 42 after the beginning of treatment, 100 mg/kg/day i.p.
[8] = day 49 after the beginning of treatment, 100 mg/kg/day i.p.
[9] = day 56 after the beginning of treatment, 100 mg/kg/day i.p.

With `N[C@@H](CCC(=O)N[C@@H](CS)C(=O)NCC(=O)O)C(=O)O` [Glutathione, glutathione] the “Degree of progression of cataract, time series analysis of variance” value [1] was “no significant difference from the control group”, the “Time at which cataract scores were reached” value [1] was “scores of 5 and 6 were reached later than in the control group” and the “Number of eyes with cataract score 0” value (day 0 after the beginning of treatment, 100 mg/kg/day i.p.) was 16 eyes. For the same compound, the “Number of eyes with cataract score 0” value [2] was 7 eyes, the “Number of eyes with cataract score 1” value [2] was 9 eyes and the “Number of eyes with cataract score 0” value [3] was 1 eyes. For the same compound, the “Number of eyes with cataract score 1” value [3] was 13 eyes, the “Number of eyes with cataract score 2” value [3] was 2 eyes and the “Number of eyes with cataract score 1” value [4] was 3 eyes. For the same compound, the “Number of eyes with cataract score 2” value [4] was 13 eyes, the “Number of eyes with cataract score 2” value [5] was 9 eyes and the “Number of eyes with cataract score 3” value [5] was 7 eyes. The “Number of eyes with cataract score 2” value [6] was 3 eyes, the “Number of eyes with cataract score 3” value [6] was 8 eyes and the “Number of eyes with cataract score 4” value [6] was 3 eyes. The “Number of eyes with cataract score 3” value [7] was 11 eyes, the “Number of eyes with cataract score 4” value [7] was 3 eyes and the “Number of eyes with cataract score 3” value [8] was 10 eyes. The “Number of eyes with cataract score 4” value [8] was 3 eyes, the “Number of eyes with cataract score 5” value [8] was 1 eyes and the “Number of eyes with cataract score 3” value [9] was 4 eyes. For the same compound, the “Number of eyes with cataract score 4” value [9] was 6 eyes, the “Number of eyes with cataract score 5” value [9] was 3 eyes and the “Number of eyes with cataract score 6” value [9] was 1 eyes.
